Laboratory results published in patent EP0906127B1, “NOVEL DEVICES FOR TRANSDERMAL ADMINISTERING OF TRIMEGESTONE” (priority 1996, dated 1997).

Experiments:
[1] = target: T1, récepteurs hormonaux humains recombinant estrogène (hER) (Homo sapiens, UniProt P03372); test: Relative binding affinity for recombinant hormone receptors (SF9 insect cell-baculovirus overexpression)
T1 construct: made in house; host or cells: SF9 insect cells / baculovirus
T1 sequence (P03372 1-595): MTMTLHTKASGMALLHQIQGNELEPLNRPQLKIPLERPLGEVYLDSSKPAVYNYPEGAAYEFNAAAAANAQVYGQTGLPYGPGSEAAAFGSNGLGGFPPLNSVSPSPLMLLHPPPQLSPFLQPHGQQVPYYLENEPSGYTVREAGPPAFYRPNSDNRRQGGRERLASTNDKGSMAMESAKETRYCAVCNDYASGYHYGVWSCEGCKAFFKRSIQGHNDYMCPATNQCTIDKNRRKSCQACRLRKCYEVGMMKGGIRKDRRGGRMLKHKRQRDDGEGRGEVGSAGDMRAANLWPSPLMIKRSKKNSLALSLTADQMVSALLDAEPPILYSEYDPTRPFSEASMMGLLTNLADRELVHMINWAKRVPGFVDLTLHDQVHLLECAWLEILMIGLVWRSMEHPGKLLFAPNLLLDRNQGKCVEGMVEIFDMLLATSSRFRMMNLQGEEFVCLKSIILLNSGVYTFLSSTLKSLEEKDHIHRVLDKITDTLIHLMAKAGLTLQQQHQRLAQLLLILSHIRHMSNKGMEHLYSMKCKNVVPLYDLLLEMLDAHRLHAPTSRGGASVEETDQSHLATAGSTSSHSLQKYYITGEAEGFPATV
Text: (§1) Cette affinité a été étudiée sur les récepteurs hormonaux humains recombinant de la progestérone (hPR), androgène (hAN), glucocorticoide (hGR) et estrogène (hER).

[2] = target: T2, récepteurs hormonaux humains recombinant de la progestérone (hPR) (Homo sapiens, UniProt P06401); test: as above
T2 construct: made in house; host or cells: SF9 insect cells / baculovirus
T2 sequence (P06401 1-933): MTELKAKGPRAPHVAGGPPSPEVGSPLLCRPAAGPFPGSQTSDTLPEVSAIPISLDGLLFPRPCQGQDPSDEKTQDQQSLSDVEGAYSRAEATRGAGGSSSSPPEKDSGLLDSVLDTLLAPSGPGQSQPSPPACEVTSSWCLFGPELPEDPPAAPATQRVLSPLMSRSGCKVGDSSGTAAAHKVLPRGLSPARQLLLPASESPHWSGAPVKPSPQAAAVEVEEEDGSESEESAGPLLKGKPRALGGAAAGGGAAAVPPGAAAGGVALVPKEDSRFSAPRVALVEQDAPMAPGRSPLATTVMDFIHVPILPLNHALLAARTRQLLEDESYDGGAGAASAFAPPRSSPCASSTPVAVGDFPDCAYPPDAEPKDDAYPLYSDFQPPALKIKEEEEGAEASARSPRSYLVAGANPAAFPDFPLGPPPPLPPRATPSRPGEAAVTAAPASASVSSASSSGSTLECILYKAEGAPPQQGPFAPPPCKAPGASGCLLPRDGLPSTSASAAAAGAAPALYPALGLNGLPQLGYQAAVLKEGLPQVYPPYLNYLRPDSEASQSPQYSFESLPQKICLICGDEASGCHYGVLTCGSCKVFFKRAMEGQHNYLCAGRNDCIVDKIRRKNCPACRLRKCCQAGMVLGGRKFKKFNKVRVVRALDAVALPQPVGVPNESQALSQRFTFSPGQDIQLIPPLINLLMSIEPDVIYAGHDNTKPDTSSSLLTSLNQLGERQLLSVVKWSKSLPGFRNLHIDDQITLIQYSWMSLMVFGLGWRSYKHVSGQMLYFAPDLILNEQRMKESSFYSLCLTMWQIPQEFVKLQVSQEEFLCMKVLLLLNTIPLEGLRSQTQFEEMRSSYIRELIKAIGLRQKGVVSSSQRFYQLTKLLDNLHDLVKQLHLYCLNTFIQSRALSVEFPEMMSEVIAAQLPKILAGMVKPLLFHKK
Text: as §1

[3] = target: T3, récepteurs hormonaux humains recombinant androgène (hAN) (Homo sapiens, UniProt P10275); test: as above
T3 construct: made in house; host or cells: SF9 insect cells / baculovirus
T3 sequence (P10275 whole entry): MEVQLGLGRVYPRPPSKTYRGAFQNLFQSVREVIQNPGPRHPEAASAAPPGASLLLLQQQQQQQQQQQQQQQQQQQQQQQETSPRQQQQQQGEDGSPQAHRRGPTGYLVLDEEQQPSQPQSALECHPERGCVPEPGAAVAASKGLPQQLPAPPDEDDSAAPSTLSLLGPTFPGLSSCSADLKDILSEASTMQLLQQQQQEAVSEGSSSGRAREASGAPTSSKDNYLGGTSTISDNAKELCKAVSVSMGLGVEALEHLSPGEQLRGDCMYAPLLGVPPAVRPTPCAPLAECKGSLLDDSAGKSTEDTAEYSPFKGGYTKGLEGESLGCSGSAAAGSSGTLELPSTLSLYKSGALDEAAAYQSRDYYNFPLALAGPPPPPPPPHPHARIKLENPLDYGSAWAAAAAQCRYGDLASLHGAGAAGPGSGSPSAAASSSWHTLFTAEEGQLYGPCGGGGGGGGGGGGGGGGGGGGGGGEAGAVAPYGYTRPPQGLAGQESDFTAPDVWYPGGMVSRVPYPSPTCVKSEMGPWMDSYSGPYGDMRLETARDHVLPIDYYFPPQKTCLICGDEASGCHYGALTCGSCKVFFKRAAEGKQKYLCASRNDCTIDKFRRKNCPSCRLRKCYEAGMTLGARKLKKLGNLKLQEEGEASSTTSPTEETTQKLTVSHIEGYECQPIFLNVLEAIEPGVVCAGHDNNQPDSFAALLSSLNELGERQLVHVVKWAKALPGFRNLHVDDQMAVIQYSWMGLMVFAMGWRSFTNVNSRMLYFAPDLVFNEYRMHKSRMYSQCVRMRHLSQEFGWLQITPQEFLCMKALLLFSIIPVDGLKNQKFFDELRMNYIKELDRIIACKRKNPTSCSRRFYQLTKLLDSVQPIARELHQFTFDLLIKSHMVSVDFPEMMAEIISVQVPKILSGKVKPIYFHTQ
Text: as §1

[4] = target: T4, récepteurs hormonaux humains recombinant glucocorticoide (hGR) (Homo sapiens, UniProt P04150); test: as above
T4 construct: made in house; host or cells: SF9 insect cells / baculovirus
T4 sequence (P04150 1-777): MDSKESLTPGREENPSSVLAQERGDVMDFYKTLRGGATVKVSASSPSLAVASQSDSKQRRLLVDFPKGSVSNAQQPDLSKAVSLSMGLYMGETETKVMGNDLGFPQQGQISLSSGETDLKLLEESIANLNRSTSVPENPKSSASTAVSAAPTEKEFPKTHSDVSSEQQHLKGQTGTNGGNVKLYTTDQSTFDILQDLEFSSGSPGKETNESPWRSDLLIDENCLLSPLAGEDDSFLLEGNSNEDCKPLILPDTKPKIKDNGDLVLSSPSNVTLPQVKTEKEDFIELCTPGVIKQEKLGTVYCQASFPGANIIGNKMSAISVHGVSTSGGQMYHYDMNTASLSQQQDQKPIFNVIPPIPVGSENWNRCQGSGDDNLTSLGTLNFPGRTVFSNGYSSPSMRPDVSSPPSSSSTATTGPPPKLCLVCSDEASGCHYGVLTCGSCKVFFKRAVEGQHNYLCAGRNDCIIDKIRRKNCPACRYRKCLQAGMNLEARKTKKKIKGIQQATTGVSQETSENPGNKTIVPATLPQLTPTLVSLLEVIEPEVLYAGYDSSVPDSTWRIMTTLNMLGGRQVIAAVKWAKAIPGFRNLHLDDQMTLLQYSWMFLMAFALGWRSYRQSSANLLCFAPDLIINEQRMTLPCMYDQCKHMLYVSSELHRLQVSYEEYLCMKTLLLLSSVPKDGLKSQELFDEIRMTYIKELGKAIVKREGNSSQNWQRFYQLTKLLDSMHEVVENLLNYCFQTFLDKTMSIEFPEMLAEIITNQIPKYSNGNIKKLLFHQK
Text: Cette affinité a été étudiée sur les récepteurs hormonaux humains recombinant de la progestérone (hPR), androgène (hAN), glucocorticoide (hGR) et estrogène (hER). Ces récepteurs sont obtenus par surexpression dans un système cellules d'insectes-bacullovirus SF9 selon les méthodes décrites notamment dans la demande de brevet Européenne 0 629 635. Les affinité relatives de liaison (ARL) sont les suivantes : […]

[5] = In vivo studies of the hormonal activity profile

Row | Compound | ARL hER [1] | ARL hPR [2] | ARL hAN ([3]; relative binding affinity) | ARL hGR [4] | affinité vis-à-vis du récepteur androgène ([3]; in words) | activité androgène [5] | activité antiandrogène [5] | activité antiglucocorticoïde [5] | activité antiminéralocorticoïde [5] | activité estrogène [5] | activité glucocorticoïde [5] | activité minéralocorticoïde [5] | activité progestomimétique [5]
1 | medroxypropgestérone [MPA] | < 0,02 | 298 | 36 | 58 | – | – | – | – | – | – | – | – | –
2 | C[C@H](O)C(=O)[C@@]1(C)CC[C@H]2[C@@H]3CCC4=CC(=O)CCC4=C3CC[C@@]21C [Trimegestone, 17alpha-méthyl-17béta-(2-hydroxy-1-oxo-propyl)-estra-4,9-dièn-3-one (21S)] | – | – | – | – | très faible affinité | dénué | présente | dénué | présente | dénué | dénué | dénué | puissant progestomimétique
